Consider 56 molecules from PubChem BioAssay AID179 (DTP/NCI, 2004).

Each structure is given as a SMILES string. pEC50, pIC50: −log10 of the molar value. Activity calls are given as the source filed them.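 The calls were made as follows: active = compounds giving half or more protection of infected cells from virus-caused growth loss, again on retest; inactive = the rest.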 Where a SMILES comes first, the peptide text is derived from it.

The test concerns CEM cells HIV-1 protection, formazan growth assay. The experiment in a line: NCI AIDS Antiviral Assay. Particulars: for pIC50: measured here: growth of uninfected CEM cells. Here is the method:
The ability of compounds to protect human CEM cells from HIV-1 infection is measured as a screen for new compounds capable of inhibiting the HIV virus. Five concentrations of drug were tested on uninfected and infected cells and cell growth was measured using a soluble formazan assay. […] Compounds that provided at least 50% protection were retested. Compounds that provided at least 50% protection on retest were listed as moderately active. Compounds that reproducibly provided 100% protection were listed as confirmed active. […] Note that the inability to provide protection could be due to toxicity.

For `COC(=O)c1cc(=O)n2c(sc3ccccc32)c1C(=O)c1ccccc1`, the pEC50 (usually the EC50 on a negative log10 scale, so that one unit is a factor of ten) is below 5.00 and the pIC50 (commonly the IC50 on a negative log10 scale, so that one unit is a factor of ten) was below 5.00.

As to `Cc1cccc(N=C2NC(=O)C(CC(=O)Nc3ccccc3Cl)S2)c1` (configuration not stated), the pEC50 is below 5.00 and the negative logarithm of the IC50 (pIC50) was below 5.00.

With `Cc1noc(C)c1-c1onc2ccc(Cl)cc12`, the pEC50 is below 4.54 and the pIC50 was below 4.54.

As to `CC(=O)O[C@H]1CCC2[C@@H]3CCC4Nc5[nH]ncc5C[C@]4(C)C3CC[C@@]21C` (some centres not stated), the result was inactive.

With `O=CC1CCC=CC1NC(=O)OCc1ccccc1` (configuration not stated), the outcome was inactive.

Regarding `CC(CC(N)C(=O)O)C(=O)O` (configuration not stated), the pEC50 was below 3.70 and the pIC50 was below 3.70.

`N#CC(C#N)=Cc1cccc(F)c1`: the pEC50 is below 3.68 and the pIC50 is 4.37.

For `CC(=N)OC1CC2CCC1(C)C2(C)C` (configuration not stated), the pEC50 was below 3.70 and the pIC50 was below 3.70.

Turning to `COc1ccc(NC2Oc3cc4c(cc3C(c3cc(OC)c(O)c(OC)c3)C2C)OCO4)cc1` (configuration not stated), the pEC50 was below 3.70 and the negative logarithm of the IC50 (pIC50) is 5.44.

As to `O=S(=O)(N/N=C/c1c(Cl)cccc1Cl)c1ccccc1`, the outcome was inactive.

As to `COc1cc2c(cc1OC)-c1cc3ccccc3c(=O)n1CC2`, the pEC50 is below 3.70 and the pIC50 was 4.55.

`CC1=NN(C(=O)CC(=O)Nc2ccc(C)cc2)C(=O)C1N=Nc1ccc(S(N)(=O)=O)cc1` (configuration not stated): the pEC50 is below 6.20 and the pIC50 was below 6.20.

Turning to `CCOC(=O)C(=CN1CC(=O)NC1=S)C(=O)OCC`, the pEC50 is below 3.70 and the pIC50 was below 3.70.

`OC12c3ccccc3C1CCCCCCCCCC21OCCCO1` (configuration not stated): the pEC50 is below 3.70 and the pIC50 is below 3.70.

Regarding `O=C(O)C1COCN1C(=O)c1ccccc1SSc1ccccc1C(=O)N1COCC1C(=O)O` (configuration not stated), the pEC50 was below 3.70 and the pIC50 is below 3.70.

As for `O=C1c2ccccc2OC(Cl)(c2ccccc2)C1Cl` (configuration not stated), the pEC50 is below 3.70 and the pIC50 is 4.50.

On to `N#CNC1=NC(C(=O)O)CC(=O)N1CCc1c[nH]c2ccccc12` (configuration not stated), for which the pEC50 is below 3.70 and the pIC50 was 4.30.

With `N#Cc1n[nH]c2nc(=S)sc(N)c12`, the pEC50 is below 2.92 and the pIC50 was 3.05.

As to `COc1ccc(CC(=O)NC(C)Cc2ccc(OC)c(OC)c2)cc1OC` (configuration not stated), the result was inactive.

For `CC[n+]1c2ccc(C)cc2nc2c3ccccc3c(N)cc21`, the pEC50 is below 3.70 and the pIC50 was 5.99.

Regarding `COC1CCC(OS(C)(=O)=O)C(C)O1` (configuration not stated), the pEC50 is below 3.70 and the pIC50 is 3.96.

On to `CC(C)CC(N)C(=O)NC(CC(=O)O)C(=O)NC(CCCCN)C(=O)NC(C)C(=O)NC(CO)C(=O)NC(Cc1ccc(O)cc1)C(=O)NC(CO)C(=O)NC(C(=O)O)C(C)O` (configuration not stated) (H-LDKASYST-OH; configuration not given here), for which the pEC50 was below 4.25 and the pIC50 is below 4.25.

Turning to `COc1ccc(C2CC(c3ccc4ccccc4c3O)=NN2)cc1OC` (configuration not stated), the pEC50 is below 3.70 and the pIC50 is 4.37.

As to `CCOC(=O)Cn1c2ccc(Br)cc2c2nc3ccccc3nc21`, the pEC50 is below 4.00 and the pIC50 is below 4.00.

For the molecule `CC(=O)OC1C[C@@H](C)C2(C[C@H](O)c3ccoc3)C(=O)OC[C@]13C2CCC(O)C31CO1` (some centres not stated), the pEC50 was below 3.70 and the pIC50 is below 3.70.

For `O=C1/C(=N\O)C(c2ccccc2)Oc2ccccc21` (configuration not stated), the pEC50 is 4.68 and the pIC50 was 4.42.

In the case of `COc1cc(-c2cc(-c3ccccc3)nc(-c3c(OC)ccc4c(C)cc(=O)oc34)c2)cc(OC)c1OC`, the pEC50 is below 3.70 and the pIC50 was below 3.70.

Take `CCOC(=O)[C@@H]1ON2O[C@@H](OC3CCCC3(c3ccccc3)c3ccccc3)C[C@H]3OC(=O)[C@@H]1C32` (some centres not stated): the pEC50 was below 3.70 and the negative logarithm of the IC50 (pIC50) is 4.46.

Turning to `O=c1oc2ccccc2c(O)c1/C=N/C(=S)NCCc1ccccc1`, the pEC50 is below 3.70 and the pIC50 was below 3.70.

In the case of `Nc1nc(F)nc2c1ncn2CC(O)CO` (configuration not stated), the pEC50 was below 2.96 and the pIC50 is 5.75.

Take `CCOC(=O)CN1C(=O)S/C(=C2\C(=O)N(C)c3ccc(Br)cc32)C1=O`: the pEC50 was below 3.70 and the pIC50 was below 3.70.

Consider `COCC1OC2(CCC[C@H]2O)O[C@H]1COC` (some centres not stated), for which the result was inactive.

`On1c(-c2ccccc2)nc2ccccc2c1=S`: the pEC50 was below 3.70 and the pIC50 was 5.84.

In the case of `O=C(NC(=O)c1ccccc1[N+](=O)[O-])Nc1ccc(Oc2ncc(Cl)cn2)c([N+](=O)[O-])c1`, the outcome was inactive.

Consider `C=C(C)CNC(=S)N(N)c1ccc(OC)cc1`, for which the pEC50 was below 3.70 and the pIC50 is 4.16.

With `O=C1/C(=C/c2ccc3c(c2)OCO3)CCC/C1=C\c1ccc2c(c1)OCO2`, the pEC50 is below 5.12 and the pIC50 is below 5.12.

With `C=C=C(C)C(c1ccccc1)N(C)C` (configuration not stated), the pEC50 was below 2.98 and the pIC50 is below 2.98.

`COC(=O)C1(F)C(=O)NC(=O)NC1OC` (configuration not stated): the pEC50 is below 2.95 and the pIC50 was 4.76.

With `CSc1cnc2ccccc2c1Sc1cn(C)c2ccccc2c1=O`, the pEC50 was below 4.43 and the pIC50 was 4.50.

With `COc1cc2c(cc1OC)C(Cc1ccccc1CCCl)=NCC2`, the pEC50 was below 3.70 and the pIC50 is 4.53.

For the molecule `Cc1noc(NS(=O)(=O)c2ccc(N=c3c4ccccc4n(Cc4ccccc4)c4ccccc34)cc2)c1C`, the outcome was inactive.

As for `Cc1ccc2c(c1)CC1(C2)Cc2ccc(C)cc2C1=O` (configuration not stated), the pEC50 is below 3.70 and the pIC50 is 4.63.

For `Clc1ccc(-n2cccc2)cc1`, the pEC50 was below 3.70 and the negative logarithm of the IC50 (pIC50) was below 3.70.

Turning to `O=[N+]([O-])c1ccc2c(c1)N([O-])C1(CCCCC1)[N+]2=O`, the pEC50 was below 3.70 and the pIC50 is 5.40.

For `COc1ccc(C2=Nc3ccccc3NC(=O)C2)cc1`, the pEC50 is below 4.43 and the pIC50 was below 4.43.

As to `CC(C#N)NCc1ccccc1` (configuration not stated), the outcome was inactive.

For `O=C1NC(=O)C(Cc2cccc(Cl)c2)C(=O)N1`, the pEC50 is below 3.70 and the pIC50 was below 3.70.

Regarding `C=Cc1cc[n+](CCCCCC[n+]2ccc(C=C)cc2)cc1`, the pEC50 is below 3.70 and the pIC50 was below 3.70.

For `CC(/C=C/c1ncccc1OCCCCCC(=O)O)=N\NC1=NCCN1`, the pEC50 is below 4.16 and the pIC50 is below 4.16.

Take `CCSC1=N/C(=C\c2ccco2)C(Cl)=N1`: the pEC50 is below 4.00 and the pIC50 is below 4.00.

`Cc1cn(C2CC(Sc3ccccn3)C(CO)O2)c(=O)[nH]c1=O` (configuration not stated): the pEC50 was below 3.43 and the pIC50 is 3.50.

As for `CCN(CC)CC(=O)Nc1ccccc1C`, the pEC50 was below 4.00 and the pIC50 is below 4.00.

In the case of `CCC[CH2][Ge]([CH2]CCC)([CH2]CCC)[O]C(=O)C(OC(C)=O)c1ccccc1` (configuration not stated), the pEC50 was below 3.82 and the pIC50 is 5.37.

As to `Cc1sc2nc3n(c(=O)c2c1C)N=C(c1ccccc1)CS3`, the pEC50 was below 3.70 and the pIC50 was below 3.70.

Turning to `CCc1cccc(CC)c1NC(=S)N/C=C(\C#N)C(=O)c1ccc2ccccc2c1`, the outcome was inactive.

Consider `CCC[CH2][Sn]1([CH2]CCC)[O]CC(CN2CCCC2)[O]1` (configuration not stated), for which the pEC50 was below 4.46.
